For 34 molecules, EC50 and IC50 results are on record in patent US11440907B1 (Merck Patent GmbH, priority 2018, dated 2022).

What all share (format): cell-based
Experiment [1] concerns intracellular calcium flux in Colo-205 cells. In words: Calcium flux assay (FLIPR Calcium 5 Assay Kit, FLIPR3). Particulars: Homo sapiens, 0.6 h, calcium flux measured over 36 minutes, read-out: Colo 205 Calcium Flux assay 384w Boston Ca assay FLIPR3 Colo EC50. The protocol:
Compounds described herein induced ER stress by causing intracellular calcium flux. Calcium flux was measured in Colo-205 cells using the FLIPR® Calcium 5 Assay Kit according to manufacturer's protocol (Molecular Devices, Cat. #R8186) on a FLIPR3 system (Molecular Devices). Calcium flux is measured over 36 minutes. The Colo-205 calcium flux assay data are summarized in Table 3: A<0.6 μM; 0.6 μM≤B<2.0 μM; 2.0 μM≤C<10.0 μM; D≥10.0 μM.
In general terms: Calcium flux is commonly read through the fluorescence of an indicator in the cells.

Experiment [2] relates to β-catenin-TCF-mediated reporter transcription activity in Colo 205 cells. The experiment in a line: Colo 205 reporter assay (TCF/LEF promoter-driven firefly luciferase). Particulars: Homo sapiens; Colo 205 TCF/LEF luciferase reporter, 5 hours after compound addition, 384 well; read-out: Colo205 IC50. A general note: In a reporter assay the amount or activity of a reporter protein is the signal.

In experiment [3] the test system is XBP1(u)-luciferase splicing reporter in HepG2 hepatoma cells. The experiment in a line: HepG2 XBP1 reporter assay (XBP1(u)-Luc). As to conditions: Homo sapiens, 6 hours after compound addition, Table 3, read-out: XBP1-luc HepG2 1 EC50.

`Cc1cc(N2CCCOC[C@@H]2c2ccc(S(C)(=O)=O)cc2Cl)nc(N)n1` (single isomer, unassigned) [I-68]: the EC50 in experiment [1] and in experiment [3] was < 600 nM each time. Further, the half-maximal inhibitory concentration (IC50) – broadly, the point on the concentration scale where inhibition reaches its midpoint – in experiment [2] was in the range of 300 to 1000 nM.

On to `CC(=O)Nc1ccc([C@H]2COCCCN2c2cc(C)nc(N)n2)c(Cl)c1` (single isomer, unassigned) [I-162], for which the EC50 in experiment [1] and in experiment [3] was < 600 nM each time. In addition, the IC50 in experiment [2] was < 300 nM.

With `Cc1cc(N2CCCOC[C@H]2c2cc(NC(=O)C(F)(F)F)ccc2Cl)nc(N)n1` (single isomer, unassigned) [I-176], the figures for the concentration for a half-maximal effect (EC50) in experiment [1] and in experiment [3] were < 600 nM and 600 to 2000 nM, respectively. Also, the concentration for half-maximal inhibition (IC50) in experiment [2] lay in the range of 300 to 1000 nM.

For `Cc1cc(N2CCCOCC2c2cc(NC(=O)C(F)(F)F)ccc2Cl)nc(N)n1` (single isomer, unassigned) [I-177, N-(3-(4-(2-amino-6-methylpyrimidin-4-yl)-1,4-oxazepan-3-yl)-4-chlorophenyl)-2,2,2-trifluoroacetamide], the half-maximal effective concentration (EC50) in experiment [1] and in experiment [3] was < 600 nM each time. Besides, the IC50 in experiment [2] was < 300 nM.

In the case of `CNc1ccc(Cl)c([C@H]2COCCCN2c2cc(C)nc(N)n2)c1` (single isomer, unassigned) [I-178, 4-[3-[2-chloro-5-(methylamino)phenyl]-1,4-oxazepan-4-yl]-6-methyl-pyrimidin-2-amine], the half-maximal effective concentration (EC50) in experiment [1] and in experiment [3] was < 600 nM throughout. Besides, the IC50 in experiment [2] was < 300 nM.

Turning to `Cc1cc(N2CCCOC[C@H]2c2ccc(NS(C)(=O)=O)cc2Cl)nc(N)n1` (single isomer, unassigned) [I-179, N-[4-[4-(2-amino-6-methyl-pyrimidin-4-yl)-1,4-oxazepan-3-yl]-3-chloro-phenyl]methanesulfonamide], the EC50 in experiment [1] and in experiment [3] was < 600 nM each time. Also, the concentration for half-maximal inhibition (IC50) in experiment [2] is < 300 nM.

For the molecule `Cc1cc(N2CCCOC[C@@H]2c2ccc(N(C)C3COC3)cc2Cl)nc(N)n1` (single isomer, unassigned) [I-190], the 50% effective concentration (EC50) in experiment [1] and in experiment [3] was < 600 nM throughout. Besides, in experiment [2], the IC50 was < 300 nM.

For `Cc1cc(N2CCCOC[C@@H]2c2ccc(NC(=O)C3(O)CC3)cc2Cl)nc(N)n1` (single isomer, unassigned) [I-197], the EC50 in experiment [1] and in experiment [3] was < 600 nM throughout. In addition, in experiment [2], the half-maximal inhibitory concentration (IC50) lay within 300 to 1000 nM.

With `CCC(=O)Nc1ccc([C@H]2COCCCN2c2cc(C)nc(N)n2)c(Cl)c1` (single isomer, unassigned) [I-204], the EC50 in experiment [1] and in experiment [3] was < 600 nM each time. Besides, the 50% inhibitory concentration (IC50) in experiment [2] is < 300 nM.

In the case of `Cc1cc(N2CCCOC[C@@H]2c2ccc(NC(=O)C3CC3)cc2Cl)nc(N)n1` (single isomer, unassigned) [I-207], the EC50 in experiment [1] and in experiment [3] was < 600 nM each time. Further, in experiment [2], the 50% inhibitory concentration (IC50) was < 300 nM.

With `Cc1cc(N2CCCOC[C@@H]2c2cc3nccn3cc2Cl)nc(N)n1` (single isomer, unassigned) [I-221, 4-[3-(6-chloroimidazo[1,2-a]pyridin-7-yl)-1,4-oxazepan-4-yl]-6-methyl-pyrimidin-2-amine], the EC50 in experiment [1] and in experiment [3] was < 600 nM in each case. Moreover, the IC50 in experiment [2] was < 300 nM.

`Cc1cc(N2CCCOC[C@@H]2c2ccc(CS(C)(=O)=O)cc2Cl)nc(N)n1` (single isomer, unassigned) [I-224]: the EC50 in experiment [1] and in experiment [3] was < 600 nM in each case. The half-inhibitory concentration (IC50) in experiment [2] was < 300 nM.

With `COc1cc(Cl)ccc1C1CCCCCN1c1cc(C)nc(N)n1` (stereo not drawn) [I-20, 4-(2-(4-chloro-2-methoxyphenyl)azepan-1-yl)-6-methylpyrimidin-2-amine], the EC50 in experiment [1] and in experiment [3] was 600 to 2000 nM throughout. Besides, the half-inhibitory concentration (IC50) in experiment [2] lay within 300 to 1000 nM.

Consider `COc1ccc(Cl)cc1C1CCCCCN1c1cc(C)nc(N)n1` (stereo not drawn) [I-21, 4-(2-(5-chloro-2-methoxyphenyl)azepan-1-yl)-6-methylpyrimidin-2-amine], for which the results for the EC50 in experiment [1] and in experiment [3] were 600 to 2000 nM and 2000 to 5000 nM, respectively. In experiment [2], the concentration for half-maximal inhibition (IC50) lay in the range of 300 to 1000 nM.

Take `COc1cc(F)ccc1C1CCCCCN1c1cc(C)nc(N)n1` (stereo not drawn) [I-22, 4-(2-(4-fluoro-2-methoxyphenyl)azepan-1-yl)-6-methylpyrimidin-2-amine]: the EC50 (usually the midpoint of the concentration-response curve) in experiment [1] is < 600 nM; in experiment [3] it was 600 to 2000 nM. Moreover, the IC50 in experiment [2] was in the range of 300 to 1000 nM.

With `CC(=O)Nc1ccc(Cl)c([C@@H]2COCCCN2c2cc(C)nc(N)n2)c1` [I-92], the EC50 in experiment [1] and in experiment [3] was < 600 nM in each case. The IC50 in experiment [2] is < 300 nM.

Consider `CNC(=O)c1ccc([C@H]2COCCCN2c2cc(C)nc(N)n2)c(Cl)c1` [I-150, (S)-4-(4-(2-amino-6-methylpyrimidin-4-yl)-1,4-oxazepan-3-yl)-3-chloro-N-methylbenzamide], for which the EC50 is < 600 nM in experiment [1] and 2000 to 5000 nM in experiment [3]. Further, the IC50 in experiment [2] lay within 300 to 1000 nM.

In the case of `CNC(=O)c1ccc(Cl)c([C@@H]2COCCCN2c2cc(C)nc(N)n2)c1` [I-181], the 50% effective concentration (EC50) in experiment [1] and in experiment [3] was < 600 nM throughout. Also, in experiment [2], the IC50 was < 300 nM.

Consider `CCS(=O)(=O)c1ccc([C@H]2COCCCN2c2cc(C)nc(N)n2)c(Cl)c1` [I-183, 4-(3-(2-chloro-4-(ethylsulfonyl)phenyl)-1,4-oxazepan-4-yl)-6-methylpyrimidin-2-amine], for which the EC50 in experiment [1] and in experiment [3] was < 600 nM in each case. For the same molecule, the IC50 in experiment [2] lay in the range of 300 to 1000 nM.

Regarding `Cc1cc(N2CCCOC[C@H]2c2ccc(C(N)=O)cc2Cl)nc(N)n1` [I-188], the concentration giving a half-maximal response (EC50) was < 600 nM in experiment [1] and 600 to 2000 nM in experiment [3]. Moreover, in experiment [2], the half-maximal inhibitory concentration (IC50) was < 300 nM.

`Cc1cc(N2CCCOC[C@@H]2c2ccc(P(C)(C)=O)cc2Cl)nc(N)n1` [I-214, 4-[3-(2-chloro-4-dimethylphosphoryl-phenyl)-1,4-oxazepan-4-yl]-6-methyl-pyrimidin-2-amine]: the values for the EC50 in experiment [1] and in experiment [3] were < 600 nM and 2000 to 5000 nM, respectively. Besides, the half-maximal inhibitory concentration (IC50) in experiment [2] is 300 to 1000 nM.

Turning to `Cc1cc(N2CCCOC[C@@H]2c2ccc(NC3COC3)cc2Cl)nc(N)n1` [I-215, 4-[(3S)-3-[2-chloro-4-(oxetan-3-ylamino)phenyl]-1,4-oxazepan-4-yl]-6-methyl-pyrimidin-2-amine], the EC50 in experiment [1] and in experiment [3] was < 600 nM throughout. Also, the half-inhibitory concentration (IC50) in experiment [2] was < 300 nM.

For `Cc1cc(N2CCCOC[C@@H]2c2ccc(N3CCOCC3)cc2Cl)nc(N)n1` [I-216, 4-[(3S)-3-(2-chloro-4-morpholino-phenyl)-1,4-oxazepan-4-yl]-6-methyl-pyrimidin-2-amine], the EC50 in experiment [1] and in experiment [3] was < 600 nM throughout. Moreover, the half-maximal inhibitory concentration (IC50) in experiment [2] was < 300 nM.

On to `COC1CN(c2ccc([C@H]3COCCCN3c3cc(C)nc(N)n3)c(Cl)c2)C1` [I-217, 4-[(3S)-3-[2-chloro-4-(3-methoxyazetidin-1-yl)phenyl]-1,4-oxazepan-4-yl]-6-methyl-pyrimidin-2-amine], for which the EC50 in experiment [1] and in experiment [3] was < 600 nM in each case. Moreover, in experiment [2], the IC50 is < 300 nM.

With `COC1CCN(c2ccc([C@H]3COCCCN3c3cc(C)nc(N)n3)c(Cl)c2)C1` (stereo partly drawn) [I-218, 4-[(3S)-3-[2-chloro-4-(3-methoxypyrrolidin-1-yl)phenyl]-1,4-oxazepan-4-yl]-6-methyl-pyrimidin-2-amine], the EC50 in experiment [1] and in experiment [3] was < 600 nM throughout. In experiment [2], the IC50 is < 300 nM.

`Cc1cc(N2CCCOC[C@@H]2c2ccc(N3CCC4(CCOC4)C3)cc2Cl)nc(N)n1` (stereo partly drawn) [I-219, 4-[(3S)-3-[2-chloro-4-(2-oxa-7-azaspiro[4.4]nonan-7-yl)phenyl]-1,4-oxazepan-4-yl]-6-methyl-pyrimidin-2-amine]: the EC50 in experiment [1] and in experiment [3] was < 600 nM in each case. Besides, in experiment [2], the IC50 was 300 to 1000 nM.

With `Cc1cc(N2CCCOC[C@@H]2c2ccc(N3CC4COCC4C3)cc2Cl)nc(N)n1` (stereo partly drawn) [I-220, 4-[(3S)-3-[4-(1,3,3a,4,6,6a-hexahydrofuro[3,4-c]pyrrol-5-yl)-2-chloro-phenyl]-1,4-oxazepan-4-yl]-6-methyl-pyrimidin-2-amine], the concentration for a half-maximal effect (EC50) in experiment [1] and in experiment [3] was < 600 nM in each case. Further, in experiment [2], the concentration for half-maximal inhibition (IC50) is < 300 nM.

As for `Cc1cc(N2CCCOCC2c2ccc(S(=O)(=O)C3CCC3)cc2Cl)nc(N)n1` (stereo not drawn) [I-222, 4-(3-(2-chloro-4-(cyclobutylsulfonyl)phenyl)-1,4-oxazepan-4-yl)-6-methylpyrimidin-2-amine], the results for the EC50 in experiment [1] and in experiment [3] were < 600 nM and 600 to 2000 nM, respectively. Further, in experiment [2], the IC50 fell in the range of 300 to 1000 nM.

Take `COc1ccc(F)cc1[C@H]1COCCCN1c1cc(C)nc(N)n1` [I-288]: the half-maximal effective concentration (EC50) in experiment [1] is < 600 nM; in experiment [3], 2000 to 5000 nM. Further, the half-maximal inhibitory concentration (IC50) in experiment [2] is < 300 nM.

As for `Cc1cc(N2CCCOCC2c2cc(Br)ccc2Cl)nc(N)n1` (stereo not drawn) [I-295], the results for the concentration for a half-maximal effect (EC50) in experiment [1] and in experiment [3] were < 600 nM and 600 to 2000 nM, respectively. Besides, the IC50 in experiment [2] is 300 to 1000 nM.

Turning to `CCS(=O)(=O)c1ccc(C2COCCCN2c2cc(C)nc(N)n2)c(Cl)c1` (stereo not drawn) [I-297], the 50% effective concentration (EC50) in experiment [1] and in experiment [3] was < 600 nM in each case. Further, the IC50 in experiment [2] is 300 to 1000 nM.

Take `Cc1cc(N2CCCOCC2c2ccc(C(N)=O)cc2Cl)nc(N)n1` (stereo not drawn) [I-298]: the concentration giving a half-maximal response (EC50) in experiment [1] is < 600 nM; in experiment [3], 2000 to 5000 nM. The IC50 in experiment [2] was < 300 nM.

For `C=C(C)c1ccc(C2COCCCN2c2cc(C)nc(N)n2)c(Cl)c1` (stereo not drawn) [I-299], the figures for the concentration giving a half-maximal response (EC50) in experiment [1] and in experiment [3] were < 600 nM and 600 to 2000 nM, respectively. The IC50 in experiment [2] lay within 300 to 1000 nM.

Turning to `Cc1cc(N2CCCOCC2c2cc(-n3cccc3)ccc2Cl)nc(N)n1` (stereo not drawn) [I-300], the results for the EC50 in experiment [1] and in experiment [3] were < 600 nM and 600 to 2000 nM, respectively. In addition, the half-inhibitory concentration (IC50) in experiment [2] lay in the range of 300 to 1000 nM.
